Test results from a melting point compilation (Tetko et al.).

| Structure (SMILES) | melting point [°C] |
| --- | --- |
| CN1C(=O)CCC(CO)C1c1ccc(C(F)(F)F)cc1 (stereo not drawn) | 95 to 97 |
| COC(=O)c1c(C)nn(C)c1Cl | 36 to 38 |
| O=C(O)c1ccc(NS(=O)(=O)c2ccc(Cl)c(Cl)c2)cc1 | 254 to 256 |
| ClCc1ncn(-c2ccccc2)n1 | 83 to 85 |
| Clc1cccc(-c2ccccn2)n1 | 62 to 64 |
| O=C(O)c1ccc2[nH]c(=O)c(=O)[nH]c2c1 | 250 to 252 |
| Cc1ccc(S(N)(=O)=O)cc1NC(=O)CCl | 179 to 181 |
| N#CC1(CS(N)(=O)=O)CC1 | 109 to 111 |
| O=C(O)C(Oc1ccccc1Br)c1ccccc1 (stereo not drawn) | 143 to 145 |
| O=C(O)CCCSc1nc2ccccc2[nH]1 | 120 to 122 |
| NCCc1cccc(OCCCc2ccccc2)c1 | 44 to 46 |
| Cc1nc(-c2ccc(O)cc2)no1 | 186 to 188 |
| O=C(O)c1csc(-c2ccc(Br)s2)n1 | 248 to 250 |
| CCNC(=O)c1ccc(Cl)nc1 | 136 to 138 |
| COc1ccc(C(=O)CC(C)(C)C(=O)O)cc1 | 166 to 168 |
| CCNC(=O)Cn1ccc(N)n1 | 124 to 126 |
| Cc1cc(C)nc(-n2nc(C)c(CC(=O)O)c2C)n1 | 249 to 251 |
| CN1CCCN(C(=O)c2ccccc2N)CC1 | 80 to 82 |
| O=C(O)CSc1nc2cc(-c3ccccc3)sc2c(=O)n1Cc1ccccc1 | 320 to 322 |
| CC1(C)OCC(C)(C(=O)O)CO1 | 117 to 119 |
| Cc1ccc(-n2nnnc2S)cc1 | 112 to 114 |
| Brc1ccc(-n2cnnn2)cc1 | 180 to 182 |
| CC(C)(C)C(=O)N1CCc2cc(C(=O)O)ccc21 | 195 to 197 |
| O=C1CNc2cccc(F)c2N1 | 161 to 163 |
| CC(=O)Nc1cc(C)c(S(=O)(=O)Cl)cc1Br | 109 to 111 |

| Structure (SMILES) | melting point [°C] |
| --- | --- |
| Nc1ncc(-c2cccc(F)c2)s1 | 168 to 170 |
| COc1ccc(NC(=O)C2(N)CCCC2)cc1OC | 116 to 118 |
| CCc1ccc(C(=O)c2cccc(S(C)(=O)=O)c2)cc1 | 97 to 99 |
| NS(=O)(=O)c1cc(Cl)ccc1[N+](=O)[O-] | 157 to 159 |
| O=C(O)CCCCOc1ccc2oc3ccccc3c2c1 | 114 to 116 |
| O=C(O)C1(c2ccc(F)cc2F)CCC1 | 64 to 66 |
| CC(C)(C)c1cc(C(=O)O)c(O)c(C(C)(C)C)c1 | 157 to 162 |
| O=C(O)c1ccc(-c2ccc3c(c2)OCCO3)s1 | 204 to 206 |
| Cn1ccc2ccnc(Cl)c21 | 57 to 59 |
| Cn1cc(-c2ccc(Cl)nn2)cn1 | 188 to 190 |
| Cc1ccc(NN)nn1 | 107 to 109 |
| Cc1cc2cc(F)ccc2[nH]1 | 98 to 101 |
| O=C(O)Cn1ccc2ccc(Cl)cc21 | 166 to 168 |
| Cc1cc(-n2c(C)c[nH]c2=O)no1 | 134 to 136 |
| CC(Sc1ncccn1)C(=O)O (stereo not drawn) | 135 to 137 |
| COc1ccc(C(=O)N2CCOCC2)cc1N | 150 to 152 |
| Cc1cc(Br)cc2ccc(=O)[nH]c12 | 278 to 280 |
| Cc1cc(C)c(C)c(OCCC(=O)O)c1 | 129 to 131 |
| COc1ccc(-c2cc(N)ccc2OC(F)F)cc1 | 131 to 135 |
| Cc1cc(Br)c2c(c1)C(=O)C(=O)N2 | 178 to 180 |
| O=C1CSC(N2CCCCC2)=N1 | 76 to 80 |
| O=C(CN1C(=O)CCC1=O)c1ccccc1 | 144 to 146 |
| N#Cc1ccc2nccnc2c1 | 179 to 181 |
| O=C(O)CC#Cc1ccccc1 | 71 to 73 |
| NCC(O)Cc1ccccc1 (stereo not drawn) | 67 to 69 |

| Structure (SMILES) | melting point [°C] |
| --- | --- |
| Nc1ncn(CC(=O)NCc2ccccc2)n1 | 181 to 183 |
| CN1CCN(S(=O)(=O)c2ccc(N)cc2)CC1 | 231 to 233 |
| COc1ccc(C(=O)C(Cl)c2ccc(OC)cc2)cc1 (stereo not drawn) | 69 to 71 |
| Nc1ccc2oc(-c3cc(F)ccc3Br)nc2c1 | 159 to 161 |
| CC(C)(C)n1c(N)nc2ccccc21 | 158 to 160 |
| Nc1nc(CC(=O)c2ccccc2)cs1 | 157 to 159 |
| Nc1cc(Br)cc(C(=O)O)c1 | 217 to 221 |
| CC(O)C(=O)Nc1ccccc1 (stereo not drawn) | 52 to 54 |
| CCC(Br)C(=O)c1ccc(OC)cc1 (stereo not drawn) | 49 to 51 |
| COC(=O)CCc1ccc(N)cc1 | 39 to 41 |
| O=C(c1ccncc1)c1cc(F)ccc1F | 53 to 55 |
| Cc1nc(NC(=O)NN)no1 | 288 to 290 |
| Cc1cc(Br)c2c(c1)C(=O)CCO2 | 84 to 86 |
| N#Cc1ccc(Oc2ccc(S(=O)(=O)Cl)cc2)cc1 | 110 to 112 |
| c1cc(-c2nnco2)ccn1 | 119 to 121 |
| CS(=O)(=O)CCS(=O)(=O)Cl | 119 to 121 |
| CC(C)(C)OC(=O)NC1CCN(C(=O)CC(F)(F)F)CC1 | 147 to 149 |
| N#Cc1cccc(CN2C(=O)CCc3ccccc32)c1 | 119 to 121 |
| COCc1ccc(C(=O)O)o1 | 63 to 65 |
| CC(C)S(=O)(=O)c1ccccc1C(=O)O | 149 to 151 |
| O=C(O)C1COCCO1 (stereo not drawn) | 59 to 61 |
| COC(=O)c1nc(Cc2ccccc2Cl)n2ccccc12 | 131 to 133 |
| O=C(O)c1nn(-c2ccc(F)cc2)c2c1CCCC2 | 209 to 211 |
